The values that follow come from patent US8470825B2, “Diazabenzo[de] anthracen-3-one compounds and methods for inhibiting PARP” (Eisai Inc., priority 2005, dated 2013).

Structures are written as SMILES.

Data set [1] can be described thus: Sensory nerve conduction velocity (SNCV) in cisplatin-induced neuropathy in rats. Format: in vivo. To be noted: for SNCV at the end of the experiment, mean: tail nerve; for tail nerve conduction velocity impairment due to chronic cisplatin treatment: co-administration of compound 4i 40 mg/kg PO daily. As for the experimental part: In this experiment, female Wistar Hannover rats were dosed with neuropathy inducing doses of cisplatin (2 mg/kg IP; twice a week for 4 weeks) with and without compound 4i (40 mg/kg PO daily). The rats were monitored for changes in sensory nerve conduction velocity (SNCV) in the caudal nerve at baseline (pre-cisplatin dosing) and after treatment. Additionally, dorsal root ganglion and sciatic nerve specimens with morphometric analysis on dorsal root ganglion neurons (somatic, nuclear and nucleolar size) were assessed histopathologically. At the beginning and end of the treatment period, each animal underwent the determination of SNCV in the tail as previously described in Cavaletti et al., “Protective Effects of glutathione on cisplatin neurotoxicity in rats,” Int. J. Radiation Oncology, 29, 771-776 (1994) and […] et al., “Low-Dose Glutathione administration in the prevention of cisplatin-induced peripheral neuropathy in rats,” Neuro toxicology, 15, 701-704 (1994). The antidromic SNCV in the tail nerve was assessed by placing recording ring electrodes distally in the tail, while the stimulating ring electrodes were placed 5 cm and 10 cm proximally with respect to the recording point. The latencies of the potentials recorded at the 2 sites after nerve stimulation were determined (peak-to-peak) and nerve conduction velocity was calculated accordingly. The differences in nerve conduction velocity, and in morphometric data obtained in dorsal root ganglia neurons during the experiment were statistically evaluated using the analysis of variance (ANOVA) and the Tukey-Kramer post-test (significance level set at p<0.05).

In data set [2] the test system is DRG neurons. Kind of data set: DRG neuron morphometry in cisplatin-induced neuropathy in rats. Format: in vivo. As for the experimental part: In this experiment, female Wistar Hannover rats were dosed with neuropathy inducing doses of cisplatin (2 mg/kg IP; twice a week for 4 weeks) with and without compound 4i (40 mg/kg PO daily). The rats were monitored for changes in sensory nerve conduction velocity (SNCV) in the caudal nerve at baseline (pre-cisplatin dosing) and after treatment. Additionally, dorsal root ganglion and sciatic nerve specimens with morphometric analysis on dorsal root ganglion neurons (somatic, nuclear and nucleolar size) were assessed histopathologically. Left L5 dorsal-root ganglia (DRG) of rats from each group were obtained from the sacrificed animals and processed according to previously reported protocols [Cavaletti et al.: […] et al]], resin embedded, and used for light and electron microscope observations and morphometry. On 1 μm thick semithin sections, morphometric determinations of the cross sectional area of the somata, nuclei and nucleoli of DRG neurons were performed using an image analysts software (Image J, NIH). The differences in nerve conduction velocity, and in morphometric data obtained in dorsal root ganglia neurons during the experiment were statistically evaluated using the analysis of variance (ANOVA) and the Tukey-Kramer post-test (significance level set at p<0.05).

In data set [3] the target is purified recombinant human PARP (Homo sapiens (Human), UniProt P09874). Kind of data set: PARP enzyme assay (IC50). The class given is biochemical. To be noted: approximate IC50 values. The method, then:
A convenient method to determine IC50 of a PARP inhibitor compound is a PARP assay using purified recombinant human PARP from Trevigan (Gaithersburg, MD), as follows: The PARP enzyme assay is set up on ice in a volume of 100 microliters consisting of 100 mM Tris-HCl (pH 8.0), 1 mM MgCl2, 28 mM KCl, 28 mM NaCl, 0.1 mg/ml of DNase I activated herring sperm DNA (Sigma, Mo.), 3.0 micromolar [3H]nicotinamide adenine dinucleotide (470 mci/mmole), 7 micrograms/ml PARP enzyme, and various concentrations of the compounds to be tested. The reaction is initiated by incubating the mixture at 25° C. After 15 minutes of incubation, the reaction is terminated by adding 500 microliters of ice cold 20% (w/v) trichloroacetic acid. The precipitate formed is transferred onto a glass fiber filter (Packard Unifilter-GF/B) and washed three times with ethanol. After the filter is dried, the radioactivity is determined by scintillation counting.

In data set [4] the test system is Murine melanoma B16 cells. Kind of data set: Survival of mice bearing intracranial B16 melanoma, compound + temozolomide. The class given is in vivo. To be noted: for MST: B16 melanoma in brain; for ILS vs TMZ: increase in lifespan. As for the experimental part:
The intracranial transplantation procedure was performed as described in Tentori L. et al., “Effects of single or split exposure of leukemic cells to temozolomide, combined with poly(ADP-ribose) polymerase inhibitors on cell growth, chromosomal aberrations and base excision repair components,” Cancer Chemother Pharmacol, 47, 361-9 (2001). Murine melanoma B16 cells (10^4) were injected intracranially (ic) into male B6D2F1 (C578L/6×DBA/2) mice. Histological evaluation of tumor growth in the brain was performed 1-5 days after tumor challenge, in order to determine the timing of treatment.
Compound 4i was dissolved in 70 mM PBS without potassium and administered po 1 h before temozolomide (TMZ). TMZ was dissolved in dimethyl-sulfoxide (40 mg/ml), diluted in saline (5 mg/ml) and administered ip at a dose of 100 mg/Kg for five days. Mice were treated with compound 4i by oral gavages once a day for five days, at doses of 10 or 40 mg/kg/day. Median survival times (MST) were determined and the percentage of increase in lifespan (ILS) was calculated as: {[MST (days) of treated mice/MST (days) of control mice]−1}×100. Efficacy of treatments was evaluated by comparing survival curves between treated and control groups.

For data set [5], the system named is B16 melanoma. The data set is described as follows: Subcutaneous B16 melanoma growth in mice, compound + temozolomide. Format: in vivo. To be noted: Compound 4i 40 mg/kg po + TMZ 100 mg/kg ip once a day for five days; s.c. tumor; day 9 to day 23. The method, then:
The efficacy of TMZ±Compound 4i treatment was also evaluated on melanoma growing subcutaneously (s.c.) in mice. For this purpose B16 cells (2.5×10^5) were inoculated s.c. in the flank of the animal. Tumors were measured with calipers and volume calculated according to the formula: [(width)^2×length]/2. Drug treatment started 6 days after challenge, when the volume of tumor nodules reached 100-150 mm^3. Compound 4i (40 mg/kg po) was administered at 20 min before temozolomide (100 mg/kg ip) once a day for five days. Melanoma growth was monitored by measuring tumor nodules every 3 days for 3 weeks.

[6] abbreviates: Tukey's multiple comparison test.

Sequence of purified recombinant human PARP (P09874 whole entry): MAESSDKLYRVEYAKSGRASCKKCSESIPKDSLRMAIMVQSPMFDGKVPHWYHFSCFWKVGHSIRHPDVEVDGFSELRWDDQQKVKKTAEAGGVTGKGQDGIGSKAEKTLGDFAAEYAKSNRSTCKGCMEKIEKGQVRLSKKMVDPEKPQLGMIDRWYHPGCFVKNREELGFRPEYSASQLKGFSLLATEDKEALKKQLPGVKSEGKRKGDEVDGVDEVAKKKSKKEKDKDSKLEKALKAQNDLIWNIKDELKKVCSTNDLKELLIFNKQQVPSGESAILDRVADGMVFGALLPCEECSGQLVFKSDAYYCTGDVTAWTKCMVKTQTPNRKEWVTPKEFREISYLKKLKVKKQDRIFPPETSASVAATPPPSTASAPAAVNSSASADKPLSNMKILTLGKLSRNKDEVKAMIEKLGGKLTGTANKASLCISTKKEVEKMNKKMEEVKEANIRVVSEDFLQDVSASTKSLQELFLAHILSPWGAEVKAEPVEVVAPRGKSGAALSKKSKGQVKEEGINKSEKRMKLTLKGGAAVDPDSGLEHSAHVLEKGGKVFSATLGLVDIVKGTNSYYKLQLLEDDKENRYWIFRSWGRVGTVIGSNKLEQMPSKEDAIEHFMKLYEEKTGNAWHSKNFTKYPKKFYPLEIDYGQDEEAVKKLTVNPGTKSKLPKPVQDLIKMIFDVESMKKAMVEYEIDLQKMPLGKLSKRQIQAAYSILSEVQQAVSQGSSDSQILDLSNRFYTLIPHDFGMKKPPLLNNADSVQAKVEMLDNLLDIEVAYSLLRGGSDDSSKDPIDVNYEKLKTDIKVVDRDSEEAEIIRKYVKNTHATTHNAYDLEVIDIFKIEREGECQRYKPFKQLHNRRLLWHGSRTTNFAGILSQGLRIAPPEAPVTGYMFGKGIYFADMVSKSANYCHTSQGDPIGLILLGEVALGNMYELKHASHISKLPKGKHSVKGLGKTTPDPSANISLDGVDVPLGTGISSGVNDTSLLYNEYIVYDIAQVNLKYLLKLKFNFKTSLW

On to `[NH2][Pt]([NH2])([Cl])[Cl]` [CDDP, Cisplatin, reference compound], for which the “SNCV at the end of the experiment, mean” value in data set [1] (CDDP alone 2 mg/kg IP twice a week for 4 weeks) was found to be 28.62 m/sec. In data set [2] (CDDP alone), the “Morphometry on DRG, Nu (nucleus), mean” value amounted to 114.3 μm^2; the “Morphometry on DRG, Nucl (nucleolus), mean” value is on record as 7.651 μm^2; the “Morphometry on DRG, Soma, mean” value stood at 683.4 μm^2.

As usually defined, the IC50 is the midpoint of a concentration-inhibition curve. Take `CC(C)N1CCN(Cc2ccc3c(c2)-c2n[nH]c(=O)c4cccc(c24)O3)CC1` [Compound 4a, 10-(4-Isopropyl-piperazin-1-ylmethyl)2H-7-oxa-1,2-diaza-benzo[de]anthracen-3-one]: the half-maximal inhibitory concentration (IC50) in data set [3] amounted to 30 nM.

Take `COCCN1CCN(Cc2ccc3c(c2)-c2n[nH]c(=O)c4cccc(c24)O3)CC1` [Compound 4b, 10-[4-(2-Methoxy-ethyl)-piperazin-1-ylmethyl]-2H-7-oxa-1,2-diaza-benzo[de]anthracen-3-one]: the half-maximal inhibitory concentration (IC50) in data set [3] stood at 20 nM.

Consider `O=c1[nH]nc2c3c(cccc13)Oc1ccc(CN3CCN(c4ncccn4)CC3)cc1-2` [Compound 4c, 10-(4-Pyrimidin-2-yl-piperazin-1-ylmethyl)-2H-7-oxa-1,2-diaza-benzo[de]anthracen-3-one], for which the concentration for half-maximal inhibition (IC50) in data set [3] came to 30 nM.

For `O=C1CN(Cc2ccc3c(c2)-c2n[nH]c(=O)c4cccc(c24)O3)CCN1` [Compound 4d, 10-(3-Oxo-piperazin-1-ylmethyl)-2H-7-oxa-1,2-diaza-benzo[de]anthracen-3-one], the half-inhibitory concentration (IC50) in data set [3] stood at 20 nM.

On to `CCN(CC)CCN(C)Cc1ccc2c(c1)-c1n[nH]c(=O)c3cccc(c13)O2` [Compound 4h, 10-{[(2-Diethylamino-ethyl)-methyl-amino]-methyl}-2H-7-oxa-1,2-diaza-benzo[de]anthracen-3-one], for which the IC50 in data set [3] was 100 nM.

As to `O=c1[nH]nc2c3c(cccc13)Oc1ccc(CN3CCC(O)CC3)cc1-2` [Compound 4i], the “SNCV at the end of the experiment, mean” value in data set [1] (CDDP 2 mg/kg IP twice a week for 4 weeks + 4i 40 mg/kg PO daily) came to 34.08 m/sec. For the same molecule, the “SNCV Mean Diff., CDDP vs CDDP + 4i” value in data set [1] (setting [6]) is given as −5.460. The “tail nerve conduction velocity impairment due to chronic cisplatin treatment” value in data set [1] is reported as “attenuate the deficits in nerve conduction velocity”; in data set [1] (listed as compound 4i), “statistically significant reduction”. For the same molecule, the MST was determined as 17 days in data set [4] (Compound 4i 10 mg/kg po + TMZ 100 mg/kg ip x 5 days) and 21 days in data set [4] (Compound 4i 40 mg/kg po + TMZ 100 mg/kg ip x 5 days). Also, the “ILS vs TMZ” value turned out to be 21% in data set [4] (Compound 4i 10 mg/kg po + TMZ x 5) and 50% in data set [4] (Compound 4i 40 mg/kg po + TMZ x 5). The “mean survival time vs TMZ as single agent” value in data set [4] (compound 4i + TMZ combination, mice bearing B16 melanoma) is on record as “significantly higher”. Besides, in data set [3], the IC50 worked out at 40 nM. The “growth of B16 melanoma vs TMZ alone” value in data set [5] is given as “significantly reduced”. Further, in data set [2] (CDDP + 4i), the “Morphometry on DRG, Nu (nucleus), mean” value is reported as 121.8 μm^2. Moreover, the “Morphometry on DRG, Nucl (nucleolus), mean” value in data set [2] (CDDP + 4i) is given as 8.069 μm^2. Further, the “Morphometry on DRG, Soma, mean” value in data set [2] (CDDP + 4i) is 822.1 μm^2. Also, the “Nucleolus Mean Diff., CDDP vs CDDP + 4i” value in data set [2] (setting [6]) is given as −0.4177. Also, the “Soma Mean Diff., CDDP vs CDDP + 4i” value in data set [2] (setting [6]) is −138.7. In addition, the “effect on DRG neuron morphometry” value in data set [2] (cisplatin-treated rats with compound 4i) is reported as “significant effect only on the somatic size of DRG neurons”.

`CCN(CCO)Cc1ccc2c(c1)-c1n[nH]c(=O)c3cccc(c13)O2` [Compound 4j, 10-{[Ethyl-(2-hydroxy-ethyl)-amino]-methyl}-2H-7-oxa-1,2-diaza-benzo[de]anthracen-3-one]: the IC50 in data set [3] is 100 nM.

Turning to `CC(C)N(Cc1ccc2c(c1)-c1n[nH]c(=O)c3cccc(c13)O2)C(C)C` [Compound 4k, 10-[(Diisopropylamino)-methyl]-2H-7-oxa-1,2-diaza-benzo[de]anthracen-3-one], the half-maximal inhibitory concentration (IC50) in data set [3] stood at 300 nM.

Consider `O=c1[nH]nc2c3c(cccc13)Oc1ccc(CN3CCC(O)C3)cc1-2` (stereo not shown) [Compound 4l, 10-(3-Hydroxy-pyrrolidin-1-ylmethyl)-2H-7-oxa-1,2-diaza-benzo[de]anthracen-3-one], for which, in data set [3], the IC50 amounted to 100 nM.

In the case of `O=c1[nH]nc2c3c(cccc13)Oc1ccc(CN3CCC(CCO)CC3)cc1-2` [Compound 4m, 10-[4-(2-Hydroxy-ethyl)-piperidin-1-ylmethyl]-2H-7-oxa-1,2-diaza-benzo[de]anthracen-3-one], in data set [3], the IC50 is 100 nM.

`O=c1[nH]nc2c3c(cccc13)Oc1ccc(CN3CCC4(CC3)OCCO4)cc1-2` [Compound 4n, 10-(1,4-Dioxa-8-aza-spiro[4.5]dec-8-ylmethyl)-2H-7-oxa-1,2-diaza-benzo[de]anthracen-3-one]: the concentration for half-maximal inhibition (IC50) in data set [3] was found to be 100 nM.

`O=c1[nH]nc2c3c(cccc13)Oc1ccc(CN3CCCC(O)C3)cc1-2` (stereo not shown) [Compound 4o, 10-(3-Hydroxy-piperidin-1-ylmethyl)-2H-7-oxa-1,2-diaza-benzo[de]anthracen-3-one]: the half-maximal inhibitory concentration (IC50) in data set [3] came to 50 nM.

On to `O=c1[nH]nc2c3c(cccc13)Oc1ccc(CN3CC(O)C3)cc1-2` [Compound 4p, 10-(3-Hydroxy-azetidin-1-ylmethyl)-2H-7-oxa-1,2-diaza-benzo[de]anthracen-3-one], for which, in data set [3], the IC50 was found to be 30 nM.

Regarding `O=c1[nH]nc2c3c(cccc13)Oc1ccc(CNCCN3CCOCC3)cc1-2` [Compound 4q, 10-[(2-Morpholin-4-yl-ethylamino)-methyl]-2H-7-oxa-1,2-diaza-benzo[de]anthracen-3-one], in data set [3], the IC50 came out at 50 nM.

As for `O=c1[nH]nc2c3c(cccc13)Oc1ccc(CN[C@H]3CC[C@H](O)CC3)cc1-2` [Compound 4r, 10-[(4-Hydroxy-cyclohexylamino)-methyl]-2H-7-oxa-1,2-diaza-benzo[de]anthracen-3-one], the concentration for half-maximal inhibition (IC50) in data set [3] came to 30 nM.

Take `O=C1CCN(Cc2ccc3c(c2)-c2n[nH]c(=O)c4cccc(c24)O3)CC1` [Compound 4s, 10-(4-Oxo-piperidin-1-ylmethyl)-2H-7-oxa-1,2-diaza-benzo[de]anthracen-3-one]: in data set [3], the half-inhibitory concentration (IC50) worked out at 120 nM.

For the molecule `Cn1nnc2c(C(N)=O)ncn2c1=O` [TMZ, temozolomide, reference compound], the MST in data set [4] (TMZ alone 100 mg/kg ip x 5) amounted to 14 days.
